Values joined by “and” are separate entries in the source; they are usually repeats but may differ in a detail not shown here. Equal values may be shown once. Read-outs that look alike come from different tables or passages of the source.
What was measured:
plasma esterase = plasma esterase (Homo sapiens, UniProt P06276); conditions: cited from earlier work
[1] = cited from earlier work
[2] = system: central pore of sodium channels; conditions: cited from earlier work
[3] = system: procaine induced convulsion; conditions: diazepam 0.3 mg/kg intravenous; procaine 100-150 mg/kg intraperitoneally; animal model; cited from earlier work
[4] = Pharmacokinetics of intravenous procaine; type: in vivo; conditions: 95 mg bolus IV, 70 kg human, calculated
Description: In a 70 kg human, with an average central compartment procaine blood volume of distribution of 0.57 L/kg procaine or 40.0. L, an initial blood level of 2.36 μg/ml is obtained with a 95 mg bolus IV procaine administration.[16]

[5] = Ion trapping effects of charged and uncharged procaine (pH=pKa+log B/BH+)
From the text: As the molecule transits from the blood to neural cytoplasm, procaine becomes more charged and less lipophilic within the cytoplasm of the neuron, and the concentration of the active charge species increases. The charged active species is essentially trapped in the cytoplasm, only being able to exit after hydrolysis to PABA and DEAE or through distribution.
The intraneural pH of human dorsal root ganglia is not known, but it is generally accepted that intraneural pH decreases with neural activity. The pH of cervical ganglia of a rodent is reported as 7.30-6.51, and the typical resting or “steady-state” pH within a hippocampal neuron is reported as ˜7.03-7.46,[30]

[6] = system: patients with chronic pain; conditions: cited from earlier work
[7] = system: patients with acute or chronic pain; conditions: cited from earlier work
[8] = system: dorsal root ganglia neurons; conditions: neurons with an abundance of Nav 1.8 channels; cited from earlier work
[9] = in vivo, iv; cited from earlier work
[10] = in vivo, po; cited from earlier work

Sequence of plasma esterase (P06276 29-602): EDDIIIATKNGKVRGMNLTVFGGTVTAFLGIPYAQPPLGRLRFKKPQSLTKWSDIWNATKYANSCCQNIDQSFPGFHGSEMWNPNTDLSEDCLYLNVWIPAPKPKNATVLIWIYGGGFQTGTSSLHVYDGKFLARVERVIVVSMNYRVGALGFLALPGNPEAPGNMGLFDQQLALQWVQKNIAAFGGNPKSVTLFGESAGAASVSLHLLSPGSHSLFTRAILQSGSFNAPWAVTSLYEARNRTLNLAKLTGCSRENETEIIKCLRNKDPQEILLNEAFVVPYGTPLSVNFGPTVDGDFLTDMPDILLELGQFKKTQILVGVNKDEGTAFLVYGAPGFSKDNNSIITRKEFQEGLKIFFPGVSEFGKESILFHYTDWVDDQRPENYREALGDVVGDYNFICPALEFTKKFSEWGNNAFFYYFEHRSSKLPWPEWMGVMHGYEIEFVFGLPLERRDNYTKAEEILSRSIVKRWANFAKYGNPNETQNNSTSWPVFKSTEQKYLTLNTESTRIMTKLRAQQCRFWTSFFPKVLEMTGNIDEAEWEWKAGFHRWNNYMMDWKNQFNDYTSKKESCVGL

Question: For CCN(CC)CCOC(=O)c1ccc(N)cc1Cl [2-chloroprocaine], which “Rate of hydrolysis by plasma esterase relative to procaine” value (plasma esterase) is on record?
Answer: 4 ×

Question: For CCN(CC)CCO [DEAE, diethylaminoethanol], which pKa [1] is on record?
Answer: ~10.1

Question: Which “Potency relative to the parent drug lidocaine” value [2] does the source give for Cc1cccc(C)c1NC(=O)CN [GX, glycinexylidide] here?
Answer: nearly ineffective

Question: Which “Potency relative to the parent drug lidocaine” value [2] does the source give for CCNCC(=O)Nc1c(C)cccc1C [MEGX, monoethylglycinexylidide] here?
Answer: 80%

Question: With Nc1ccc(C(=O)O)cc1 [PABA, para-aminobenzoic acid] as the molecule, how does the pKa [1] read?
Answer: ~4.6

Question: Which “Effect on procaine induced convulsion” value [3] does the source give for CN1C(=O)CN=C(c2ccccc2)c2cc(Cl)ccc21 [diazepam] here?
Answer: aborted procaine induced convulsion

Question: For CCN(CC)CCOC(=O)c1ccc(N)cc1 [procaine], which Initial blood level [4] is on record?
Answer: 2.36 µg/mL

Question: And the “[BH+]/[B]” value ([5]; Blood, pH 7.4)?
Answer: 32

Question: And the “[BH+]/[B]” value ([5]; CSF, pH 7.32)?
Answer: 38

Question: What about the “[BH+]/[B]” value ([5]; Ganglia or intraneural, pH 7.30-6.51) of the same molecule?
Answer: 40-245

Question: What about the “[BH+]/[B]” value ([5]; Interstitial, pH 7.4) of the same molecule?
Answer: 32

Question: And the “Predicted intraneural [BH+] relative to blood [BH+]” value ([5]; ion trapping and diminished CSF pseudocholinesterase activity, without Michaelis-Menten kinetics)?
Answer: ≤ 750 times

Question: What about the “Factor of increase of [BH+]/[B] from blood to intraneural cytoplasm” value ([5]; ion trapping only) of the same molecule?
Answer: at least 7.5

Question: And the “Efficacy (patients successfully treated)” value ([6]; Balfour 1951, oral 80 mg with Metamucil, chronic dysphagia)?
Answer: 8

Question: What about the “Efficacy (patients with relief / patients treated)” value ([6]; Beinhauer 1954, oral 3000 mg/day, herpes zoster or burning tongue syndrome) of the same molecule?
Answer: 9/14

Question: And the “Efficacy (patients with analgesia / patients treated)” value ([6]; Klein 1953, oral 450 mg TID, chronic pain from arthritis)?
Answer: 38/50

Question: And the “Efficacy (patients with analgesia / patients treated)” value ([6]; Koch 1989, oral 200 mg BID, procaine double salt complex, chronic pain from rheumatoid arthritis)?
Answer: 29/30

Question: What about the “Efficacy (patients with analgesia / patients treated)” value ([6]; Kupperman 1957, oral 1000 mg TID with meals, arthritis) of the same molecule?
Answer: no analgesia and 0/50

Question: And the “Efficacy (patients with chronic pain relief / patients treated)” value ([6]; Traut 1952, oral 3000 mg/day in divided doses after meals, arthritis)?
Answer: 5/32

Question: And the “Relief of pain and discomfort” value ([7]; Betcher, IV, 92 patients, various orthopedic conditions)?
Answer: adequate relief

Question: What about the Analgesia ([7]; Kahl, IV infusion 2000 mg over 24 hours, acute pancreatic pain) of the same molecule?
Answer: poor analgesia

Question: And the Analgesia ([7]; Keats, IV, approximate dose 370 mg, 53 patients, acute post-operative pain)?
Answer: inadequate analgesia

Question: What about the “Chronic pain relief (patients)” value ([7]; Shanbrom, 500 mg to 1000 mg IV, postherpetic neuralgia) of the same molecule?
Answer: 13/16

Question: What about the “Relief of acute pain” value ([7]; Zeluff, IV 1000 mg, 3 patients, traumatic military injuries) of the same molecule?
Answer: dramatic relief

Question: What about the “Minimum concentration for block of dorsal root ganglia neurons” value [8] of the same molecule?
Answer: 10 µM

Question: What about the “Blood level considered therapeutic” value [9] of the same molecule?
Answer: 10 µg/mL

Question: What about the “Peak plasma procaine levels” value [10] of the same molecule?
Answer: 0.2-3.1 mg percent
